This is an account of results in patent publication US4861795A, “Treatment of conditions requiring enhanced oxygen availability to mammalian tissues” (Rorer Pharmaceutical Corporation, priority 1988, dated 1989).

Structures can show the parent of a compound that is named as a salt.

In the first test the target is T1, 2,3-DPG phosphatase (Homo sapiens, UniProt P07738).
T1 sequence (P07738 1-259): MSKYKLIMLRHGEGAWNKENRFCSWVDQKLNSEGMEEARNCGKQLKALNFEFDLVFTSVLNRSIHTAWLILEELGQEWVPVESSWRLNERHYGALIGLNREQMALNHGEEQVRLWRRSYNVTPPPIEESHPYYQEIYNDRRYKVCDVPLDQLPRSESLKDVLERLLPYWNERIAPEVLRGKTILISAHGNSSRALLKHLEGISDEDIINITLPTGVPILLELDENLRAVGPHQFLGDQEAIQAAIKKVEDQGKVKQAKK
In words: 2,3-Diphosphoglycerate Phosphatase Assay (radiochemical, release of inorganic 32P-phosphate from 2,3-DPG). The class given is biochemical. Conditions: 100 μM compound; pH 7.5, 110 μM 32P-labeled 2,3-DPG, 5 μM phosphoglycolate, 37° C., 20 minutes. On the procedure: 2,3-Diphosphoglycerate Phosphatase Assay The activity of 2,3-DPG phosphatase was determined radiochemically using a method based on Rose et al. (J. Biol. Chem. 245, 3232-3241, 1970). In this method the activity of the phosphatase is measured by determining the release of inorganic phosphate from the substrate, 2,3-DPG. The test compounds were dissolved in dimethyl sulfoxide at 100 times the final concentration used and then added to the reaction mixture at the beginning of the assay period. In the control experiments equivalent concentration of dimethyl sulfoxide was used. […] At the end of incubation the reaction was stopped by the addition of 0.1 ml of 15% w/v trichloroacetic acid and the sample was centrifuged (Eppendorf microfuge, Model 5413) in order to remove protein precipitates. Then 0.2 ml of the supernatant was withdrawn and mixed with 0.1 ml of 8 M sulfuric acid, 0.1 ml of 5% w/v ammonium molybdate and 0.6 ml of water. The mixture then was extracted with 2 ml of isobutanol/benzene (1:1,v/v) and then centrifuged to effect separation of the phases. 1 ml of the organic phase containing the extracted ^32 p-phosphate was counted in a scintillation counter (Beckman, Model LS 8,000) using a program for ^32 p radioactivity. The activity of the enzyme was expressed as number of mole phosphate release per minute. From the data obtained by employing the test method above-described, the percent inhibition of 2,3-DPG phosphatase was calculated and is shown in Table II.
For orientation: inhibition means the change of the read-out against control, counted positive when it falls. Regarding `COc1cccc2cc(C(=O)O)c(O)cc12` [a, 5-methoxy-3-hydroxy-2-naphthoic acid], 100 µM produced 79.2% inhibition.
Compound `O=C(O)c1cc2cccc(OCCc3ccccc3)c2cc1O` [b, 5-phenetoxy-3-hydroxy-2-naphthoic acid] registered an inhibition at 100 µM of 94.3%.
In turn, `O=C(O)c1cc2cccc(OCc3cccc(C(F)(F)F)c3)c2cc1O` [c, 5-(3-trifluoromethylbenzyloxy)-3-hydroxy-2-naphthoic acid] showed an inhibition at 100 µM of 94.3%.
Turning to `O=C(O)c1cc2cccc(OCCOc3ccccc3)c2cc1O` [d, 5-phenoxyethoxy-3-hydroxy-2-naphthoic acid], 100 µM produced 92.5% inhibition.
Still for that read-out and setting: then `CC(=O)Oc1cccc2cc(C(=O)O)c(O)cc12` [g, 5-acetoxy-3-hydroxy-2-naphthoic acid], with 89.6%.
Same read-out and setting: the value for `O=C(O)c1cc2cccc(OCc3ccccc3)c2cc1O` [h, 5-benzyloxy-3-hydroxy-2-naphthoic acid] was 74%; that for `CCOC(=O)c1cc2cccc(OCCN3CCCC3)c2cc1OCCN1CCCC1` [p, ethyl 3,5-bis[2-(1-pyrrolidinyl)ethoxy]-2-naphthoate monohydrochloride] was 99.2%.
In turn, `O=C(O)c1cc2cccc(OCc3ccc(Cl)c(Cl)c3)c2cc1O` [q, 5-(3,4-dichlorobenzyloxy)-3-hydroxy-2-naphthoic acid] registered an inhibition at 100 µM of 97.7%.
Same read-out and setting: the value for `O=C(O)c1cc2cccc(OCCCc3ccccc3)c2cc1O` [r, 3-hydroxy-5-(3-phenylpropoxy)-2-naphthoic acid] was 97.1%; that for `O=C(O)c1cc2cccc(OCc3ccc(Cl)cc3Cl)c2cc1O` [s, 5-(2,4-dichlorobenzyloxy)-3-hydroxy-2-naphthoic acid] was 95.6%; that for `O=C(O)c1cc2cccc(OCc3c(Cl)cccc3Cl)c2cc1O` [t, 5-(2,6-dichlorobenzyloxy)-3-hydroxy-2-naphthoic acid] was 94.2%.
`O=C(O)c1cc2cccc(OCCCc3ccc(Cl)c(Cl)c3)c2cc1O` [u, 5-[3-(3,4-dichlorophenyl)-propoxy]-3-hydroxy-2-naphthoic acid] registered an inhibition at 100 µM of 86.9%.
Still for that read-out and setting: the value for `O=C(O)c1cc2cccc(OCc3ccc(F)cc3)c2cc1O` [v, 5-(4-fluorobenzyloxy)-3-hydroxy-2-naphthoic acid] was 89%.
`O=C(O)c1cc2cccc(OCc3ccc(Cl)c(Cl)c3)c2cc1OCc1ccc(Cl)c(Cl)c1` [w, 3,5-bis-(3,4-dichlorobenzyloxy)-2-naphthoic acid] displayed an inhibition at 100 µM of 93.6%.
The same measure, in the same setting: the value for `C=CCCCCCCCCCOc1cccc2cc(C(=O)O)c(O)cc12` [x, 3-hydroxy-5(undecenyloxy)-2-naphthoic acid] was 100%; that for `O=C(O)c1cc2cccc(OCc3ccccc3)c2cc1OC(=O)C(Cl)Cl` [y, 5-benzyloxy-3-dichloroacetoxy-2-naphthoic acid] was 81.9%.

Another test concerns oxygen-dissociation curve in whole human blood.
Assay: not given
The conditions noted are these: in vitro, increase of 2,3-DPG; cited from earlier work.
For `O=C(O)C(COP(=O)(O)O)OP(=O)(O)O` (centres unmarked) [2,3-DPG, 2,3-diphosphoglyceric acid], the “displacement of the oxygen-dissociation curve (in words)” value is “displaces in vitro the oxygen-dissociation curve to the right of normal”.
